These results are taken from patent publication US8492391B2, “Substituted 6-(2-hydroxybenzylamino)purine derivatives, their use as medicaments and compositions containing these derivatives” (Univerzita Palackeho V Olomouci, priority 2009, dated 2013).

The test system of data set [1] is β-adrenergic receptors. Nature of the data set: Modulation of the activity of β-adrenergic receptors (isoproterenol-induced cAMP synthesis in C6 glioma). Particulars: rat C6 glioma, cAMP synthesis induced by 5 μM (−) isoproterenol, 30 min; for EFFECT (modulation of the activity of β-adrenergic receptors) / EFFECT: fold activation (modulation of the activity of β-adrenergic receptors): simultaneous addition. The class given is cell-based. The protocol:
Mechanism of action of novel compounds is presented on FIG. 2. […] Incubation was at 37° C. in a humidified atmosphere. Assays were performed in the logaritmic growth phase at a density of 2.5×10^5 cells/cm^2. Intracellular cAMP synthesis was induced by addition of 5 μM (−) isoproterenol. After 30 min incubation at 37° C. the medium was removed and the cellular amount of cAMP determined using the cAMP-enzyme immunoassay kit of Amersham. The I50 is determined from a dose-response curve in duplicate. The effect of several novel substituted 6-(2-hydroxybenzylamino)purine derivatives was measured after simultaneous addition with isoproterenol.
As P2Y1-like and A2 purinergic receptors, negatively and positively coupled to adenylate cyclase respectively, are present on rat C6 glioma. It has to be determined if the modulation of the synthesis of cAMP is due to inhibition of the activation of β-adrenergic receptors by isoproterenol are due to activation of purinergic receptors.

Data set [2] has as its system p53. Nature of the data set: p53-dependent transcription, β-galactosidase reporter in Arn8 cells. Format: cell-based, human. Set-up: key to p53 (effect): induction of p53 protein: ++: very strong; +: weak; −: no effect. Particulars: for p53 (effect): induction of p53 protein: Arn8 cells stable transfected with a β-galactosidase reporter gene; for p53 (peak concentration in μM): Arn8 cells, concentration inducing maximum of β-galactosidase activity. The text has this:
Protein p53, accumulated in nuclei upon treatment by the compounds, then leads to trans-activation of natural cell cycle inhibitor p21^WAF1, further blocking the cell cycle. […] This allows qualitative as well as quantitative measurement of CDK inhibitors-induced p53 transcriptional activity via β-galactosidase assay. Then, the effect will be verified in treated cells by immunoblotting of proteins expressed under the control of p53. β-galactosidase activity of human melanoma cell line Arn8 was determined as described. […] Alternatively, β-galactosidase activity was quantified by measuring fluorescence of methylumbelliferyl-β-D-galactopyranoside cleavage product. Cell lines established from the human breast carcinoma (MCF-7) and the human melanoma (Arn8) cell lines were cultured in Dubecco's Modified Eagle Medium (DMEM) supplemented with 10% foetal bovine serum.
Effects of prepared compounds on activation of p53 protein were analysed in human melanoma cell line Arn8. […] The total β-galactosidase activity in Arn8 cells was quantified using a fluorimetric assay.

Data set [3] concerns the target T1, CDK2/cyclin E (Homo sapiens, UniProt P24941).
T1 construct: made in house; host or cells: Sf9 insect cells, baculovirus co-infection
Nature of the data set: CDK2/cyclin E kinase inhibition assay. The class given is biochemical. Particulars: kinase inhibitory activity, 15 μM ATP, histone substrate. The protocol: (§1) Selected compounds were tested for CDK1/cyclin B, CDK2/cyclin E, CDK5/p25, CDK7/cyclin H and CDK9/cyclin T inhibitory activity to determine the basic relationships between their structure and the inhibitory activity. Cdk/cyclin complexes were expressed in Sf9 cells co-infected with appropriate baculoviral construct. The cells were harvested 70 hours post infection in lysis buffer (50 mM Tris pH 7.4, 150 mM NaCl, 5 mM EDTA, 20 mM NaF, 1% Tween 20, protease inhibitors) for 30 min on ice and the soluble fraction was recovered by centrifugation at 14.000 g for […]. The protein extract was stored at −80° C. until use. The final point test system for kinase activity measurement was used to carry out experiments on the kinetics under linear conditions. […] ATP and tested compound in a final volume of 20 μl, all in reaction buffer: 50 mM Hepes pH 7.4, 10 mM MgCl2, 5 mM EGTA, 10 mM 2-glycerolphosphate, 1 mM NaF, 1 mM DTT and protease inhibitors. After 30 min, the incubations were stopped by adding 5% H3PO4 and then the proteins were separated by phosphocellulose binding. The measurement of kinase inhibition employed the digital imaging analyzer BAS 1800. The kinase activity was expressed as a percentage of maximum activity and the IC50 value was determined by graphic analysis. The kinase activity is expressed as a percentage of maximum activity (FIG. 1).

The target in data set [4] is T2, CDK9/cyclin T (Homo sapiens, UniProt P50750).
T2 construct: made in house; host or cells: Sf9 insect cells, baculovirus co-infection
T2 sequence (P50750 whole entry, species assumed): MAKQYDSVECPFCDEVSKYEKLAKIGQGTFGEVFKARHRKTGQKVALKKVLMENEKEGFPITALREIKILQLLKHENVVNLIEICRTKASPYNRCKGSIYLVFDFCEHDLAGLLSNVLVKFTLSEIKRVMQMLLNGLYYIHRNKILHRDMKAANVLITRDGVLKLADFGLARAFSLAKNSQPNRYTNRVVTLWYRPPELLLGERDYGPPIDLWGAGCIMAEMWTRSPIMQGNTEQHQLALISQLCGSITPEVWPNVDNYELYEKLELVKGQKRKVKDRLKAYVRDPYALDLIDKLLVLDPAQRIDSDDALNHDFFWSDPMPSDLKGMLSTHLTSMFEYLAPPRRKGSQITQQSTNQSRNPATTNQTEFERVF
T2 sequence (O60563 whole entry partner, species assumed): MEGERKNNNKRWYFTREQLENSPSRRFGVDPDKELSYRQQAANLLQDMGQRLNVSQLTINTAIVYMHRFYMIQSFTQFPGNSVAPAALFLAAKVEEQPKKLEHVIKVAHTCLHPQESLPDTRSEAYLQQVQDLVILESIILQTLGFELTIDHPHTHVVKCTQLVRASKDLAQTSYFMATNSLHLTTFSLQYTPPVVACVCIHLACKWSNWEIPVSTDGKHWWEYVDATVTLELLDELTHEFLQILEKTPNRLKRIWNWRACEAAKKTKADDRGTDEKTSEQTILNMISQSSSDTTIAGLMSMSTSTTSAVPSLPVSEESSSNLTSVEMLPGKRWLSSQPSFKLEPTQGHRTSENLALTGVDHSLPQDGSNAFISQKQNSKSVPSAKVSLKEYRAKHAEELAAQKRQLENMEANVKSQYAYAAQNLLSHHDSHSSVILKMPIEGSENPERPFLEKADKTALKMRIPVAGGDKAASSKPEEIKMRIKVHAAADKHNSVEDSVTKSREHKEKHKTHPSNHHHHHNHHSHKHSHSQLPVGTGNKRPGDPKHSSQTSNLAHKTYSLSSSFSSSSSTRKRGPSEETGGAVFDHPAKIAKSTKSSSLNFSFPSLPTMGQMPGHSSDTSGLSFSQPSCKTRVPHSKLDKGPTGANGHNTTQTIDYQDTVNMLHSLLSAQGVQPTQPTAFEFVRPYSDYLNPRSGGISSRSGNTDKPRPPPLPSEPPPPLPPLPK
Nature of the data set: CDK9/cyclin T kinase inhibition assay. Format: biochemical. Particulars: kinase inhibitory activity, 15 μM ATP, (YSPTSPS)3 peptide substrate. The protocol: as §1

The test system of data set [5] is MCF7 (human breast adenocarcinoma). Nature of the data set: Calcein AM cytotoxicity assay, MCF7. The class given is cell-based. Particulars: MCF7, read-out: Cytotoxic activity IC50 (μM) MCF7. The text has this: (§2) Cytotoxicity of the compounds is the major property determining their anticancer effect in vivo. One of the parameters used, as the basis for cytotoxicity assays, is the metabolic activity of viable cells. For example, a microtiter assay, which uses the Calcein AM, is now widely used to quantitate cell proliferation and cytotoxicity. For instance, this assay is used in drug screening programs and in chemosensitivity testing. Because only metabolically active cells cleave Calcein AM, these assays detect viable cells exclusively. The quantity of cleaved Calcein AM corresponds to the number of vital cells in the culture. We have been using the following cell lines: MCF7 (human breast adenocarcinoma), K562 (human chronic myelogenous leukaemia), HOS (human osteogenic sarcoma), HeLa (human cervical carcinoma), HL 60 (human promyelocytic leukaemia), G 361 (human malignant melanoma), CEM (human lymphoblastoid leukaemia). All cell lines were grown in DMEM medium (Gibco BRL) supplemented with 10% (v/v) fetal bovine serum and L-glutamine and maintained at 37° C. in a humidified atmosphere with 5% CO2. For cytotoxicity assays, 10^4 cells were seeded into each well of 96 well plate, allowed to stabilize for at least 2 h and then tested compounds were added at various concentrations ranging from 100 to 0.1 μM in triplicates. Three days after drug addition Calcein AM solution (Molecular Probes) was added and let to enter the cells for 1 hour. Fluorescence of viable cells was quantified using Fluoroskan Ascent (Microsystems).

Data set [6] has as its system K562 (human chronic myelogenous leukaemia). Nature of the data set: Calcein AM cytotoxicity assay, K562. Particulars: read-out: Cytotoxic activity IC50 (μM) K562. The class given is cell-based.
Excerpt: as §2

Data set [7] has as its system HOS (human osteogenic sarcoma). Nature of the data set: Calcein AM cytotoxicity assay, HOS. Format: cell-based. Particulars: read-out: Cytotoxic activity IC50 (μM) HOS.
Excerpt: as §2

Read-outs that look alike come from different tables or passages of the source.

On to `COc1cccc(CNc2nc(NC3CCC(N)CC3)nc3c2ncn3C(C)C)c1O` (mixture of isomers) [Compound 126, (E/Z)—N^2-(4-aminocyclohexyl)-N^6-(2-hydroxy-3-methoxybenzyl)-9-isopropyl-9H-purin-2,6-diamine], for which, in data set [1], 4 ± 1 µM corresponded to half-maximal inhibition (IC50) and the “EFFECT (modulation of the activity of β-adrenergic receptors)” value is given as “inhibition”. Also, in data set [2], the “p53 (effect): induction of p53 protein” value was “++” and the “p53 (peak concentration in μM)” value was found to be 11.0 µM.

With `CCC(CO)Nc1nc(NCc2cc(Cl)ccc2O)c2ncn(C(C)C)c2n1` (centres unmarked) [Compound 79], the half-maximal inhibitory concentration (IC50) in data set [3] is 0.07 µM; in data set [4], 0.04 µM; in data set [5] (Homo sapiens), 3.5 µM; in data set [6] (Homo sapiens) it was 11.9 µM; in data set [7] (Homo sapiens) it was 5.3 µM. Further, the “EFFECT: fold activation (modulation of the activity of β-adrenergic receptors)” value (“EFFECT: fold activation” below) in data set [1] is 1.5-fold activation. Besides, in data set [2], the “p53 (effect): induction of p53 protein” value is on record as “++”. Moreover, the “p53 (peak concentration in μM)” value in data set [2] was 8.0 µM.

Turning to `CC(C)C(CO)Nc1nc(NCc2cc(Cl)ccc2O)c2ncn(C(C)C)c2n1` (centres unmarked) [Compound 80], the results for the half-inhibitory concentration (IC50) in data set [3] and in data set [4] were 0.06 µM and 0.05 µM, respectively. In data set [1], the “EFFECT: fold activation” value is 1.8-fold activation.

In the case of `CC(C)n1cnc2c(NCc3cc(Cl)ccc3O)nc(NCC(C)(C)O)nc21` [Compound 81], the IC50 came out at 0.03 µM in data set [3] and 0.02 µM in data set [4]. Besides, the “EFFECT: fold activation” value in data set [1] was 1.7-fold activation.

`CC(C)n1cnc2c(NCc3cc(F)ccc3O)nc(NC3CCCCC3N)nc21` (centres unmarked) [Compound 86]: the concentration for half-maximal inhibition (IC50) is 0.04 µM in data set [3]; 0.02 µM in data set [4]; 8 ± 2 µM in data set [1]; 1.8 µM in data set [5] (Homo sapiens); 7.6 µM in data set [6] (Homo sapiens); 3.2 µM in data set [7] (Homo sapiens). For the same compound, in data set [1], the “EFFECT (modulation of the activity of β-adrenergic receptors)” value is “inhibition”.

As to `CCC(CO)Nc1nc(NCc2cc(F)ccc2O)c2ncn(C(C)C)c2n1` (centres unmarked) [Compound 89], the 50% inhibitory concentration (IC50) in data set [3] is 0.05 µM; in data set [4] it was 0.02 µM; in data set [5] (Homo sapiens), 3.2 µM; in data set [6] (Homo sapiens) it was 14.7 µM; in data set [7] (Homo sapiens) it was 5.3 µM. For the same compound, the “EFFECT: fold activation” value in data set [1] is on record as 1.9-fold activation. The “p53 (effect): induction of p53 protein” value in data set [2] is given as “++”. The “p53 (peak concentration in μM)” value in data set [2] is 6.0 µM.

With `Cc1cccc(CNc2nc(NC3CCCCC3N)nc3c2ncn3C(C)C)c1O` (centres unmarked) [Compound 105], in data set [1], inhibition was half-maximal at 12 ± 4 µM (IC50) and the “EFFECT (modulation of the activity of β-adrenergic receptors)” value is “inhibition”.

In the case of `Cc1ccc(O)c(CNc2nc(NC3CCC(N)CC3)nc3c2ncn3C(C)C)c1` (centres unmarked) [Compound 106], in data set [1], the 50% inhibitory concentration (IC50) worked out at 7 ± 2 µM and the “EFFECT (modulation of the activity of β-adrenergic receptors)” value was “inhibition”.

For `CCC(CO)Nc1nc(NCc2cc(C)ccc2O)c2ncn(C(C)C)c2n1` (centres unmarked) [Compound 107], the 50% inhibitory concentration (IC50) in data set [3] was 0.02 µM; in data set [5] (Homo sapiens) it was 6.6 µM; in data set [6] (Homo sapiens), 24.9 µM; in data set [7] (Homo sapiens), 18 µM. Moreover, in data set [2], the “p53 (effect): induction of p53 protein” value was “++”. In addition, in data set [2], the “p53 (peak concentration in μM)” value was 6.0 µM.

In the case of `CC(C)C(CO)Nc1nc(NCc2cccc(O)c2O)c2ncn(C(C)C)c2n1` (centres unmarked) [Compound 114], in data set [2], the “p53 (effect): induction of p53 protein” value was “++” and the “p53 (peak concentration in μM)” value was 12.0 µM.

With `CCC(CO)Nc1nc(NCc2ccc(O)cc2O)c2ncn(C(C)C)c2n1` (centres unmarked) [Compound 119], the half-maximal inhibitory concentration (IC50) in data set [3] was 0.08 µM; in data set [4], 0.05 µM; in data set [5] (Homo sapiens), 4.3 µM; in data set [6] (Homo sapiens) it was 13 µM; in data set [7] (Homo sapiens) it was 8.1 µM. The “EFFECT: fold activation” value in data set [1] is reported as 1.6-fold activation. Further, in data set [2], the “p53 (effect): induction of p53 protein” value is given as “+”. Further, the “p53 (peak concentration in μM)” value in data set [2] came out at 12.0 µM.

As to `CCC(CO)Nc1nc(NCc2cc(O)cc(O)c2)c2ncn(C(C)C)c2n1` (centres unmarked) [Compound 123], in data set [1], the “EFFECT: fold activation” value is recorded as 1.7-fold activation. Further, the figures for the IC50 in data set [5], in data set [6] and in data set [7] were 3.2 µM, 5.3 µM and 3.7 µM, respectively. Besides, in data set [2], the “p53 (effect): induction of p53 protein” value was “+”. The “p53 (peak concentration in μM)” value in data set [2] amounted to 11.0 µM.

For the compound `CC(C)C(CO)Nc1nc(NCc2cc(O)ccc2O)c2ncn(C(C)C)c2n1` (centres unmarked) [Compound 124], the “EFFECT: fold activation” value in data set [1] is given as 2.1-fold activation.

On to `COc1cccc(CNc2nc(NC3CCCCC3N)nc3c2ncn3C(C)C)c1O` (centres unmarked) [Compound 125], for which the IC50 in data set [3] was 0.02 µM; in data set [1], 2 µM; in data set [5] (Homo sapiens), 3.2 µM; in data set [6] (Homo sapiens), 10.9 µM. Moreover, in data set [1], the “EFFECT (modulation of the activity of β-adrenergic receptors)” value was “inhibition”. In addition, in data set [2], the “p53 (effect): induction of p53 protein” value is reported as “++”. In addition, the “p53 (peak concentration in μM)” value in data set [2] is 10.0 µM.

For `CC[C@H](CO)Nc1nc(NCc2ccccc2O)c2ncn(C(C)C)c2n1` [OCII, olomoucine II, reference compound], in data set [2], the “p53 (effect): induction of p53 protein” value is “++” and the “p53 (peak concentration in μM)” value was found to be 12.0 µM.

For the compound `Cn1cnc2c(NCc3ccccc3)nc(NCCO)nc21` [OC], in data set [1], the “IC50 (μM) (modulation of the activity of β-adrenergic receptors)” value was “inactive” and the “EFFECT (modulation of the activity of β-adrenergic receptors)” value is “inactive”. Besides, the IC50 in data set [5] is 133 µM. Moreover, the IC50 in data set [6] was 163 µM.

`CCC(CO)Nc1nc(NCc2cc(Cl)ccc2O)c2ncn(C(CC)CC)c2n1` (centres unmarked) [compound 224]: the IC50 in data set [3] was 0.09 µM; in data set [4] it was 0.06 µM; in data set [5] (Homo sapiens) it was 5.5 µM; in data set [6] (Homo sapiens) it was 15.6 µM; in data set [7] (Homo sapiens), 7.2 µM.

Turning to `CCC(CO)Nc1nc(NCc2cc(F)ccc2O)c2ncn(C(CC)CC)c2n1` (centres unmarked) [compound 228], the IC50 was 0.07 µM in data set [3]; 0.04 µM in data set [4]; 4.6 µM in data set [5] (Homo sapiens); 13.2 µM in data set [6] (Homo sapiens); 6.8 µM in data set [7] (Homo sapiens).
